Results reported in PMC8667918, “Synthesis and biological evaluation of halogenated phenoxychalcones and their corresponding pyrazolines as cytotoxic agents in human breast cancer” (Journal of Enzyme Inhibition and Medicinal Chemistry, 2021).
Where “and” joins values, the source holds several entries; their conditions need not be identical. Identical values can stand only once.

Key:
[1] = test system: MCF-7 breast cancer cell line; experiment: MTT assay, cytotoxicity against breast cancer cell line MCF-7; settings: for IC50: Homo sapiens, MCF7, 48 h, read-out: In vitro cytotoxicity IC50 MCF-7; for Selectivity index: ratio of IC50 on normal cells (MCF-10a) to cancer cells (MCF-7)
Method: (§1) Human breast cancer cell line MCF-7 and normal breast cell line MCF-10a were obtained from American type culture collection, MCF-7 cells were cultured using Dulbecco’s Modified Eagle Medium DMEM (Invitrogen/Life Technologies) supplemented with 10% FBS (Hyclone), 10 µg/ml of insulin (Sigma), and 1% penicillin-streptomycin. MCF-10a cell line was cultured using DMEM medium supplemented with 10% FBS, 1% sodium pyruvate, 1% MEM NEAA, 20 ng/ml human epidermal growth factor (HEGF), 10 μg/ml insulin and 0.05 mM hydrocortisone. The cells were incubated at 37 °C in a humidified atmosphere of 5% CO2.
(§2) The anticancer effect of phenoxychalcones and N-acetylpyrazolines on the viability of both tumour and normal cells was evaluated using МТТ assay as a rapid colorimetric assay. It is based on the ability of mitochondrial dehydrogenases of viable cells to reduce yellow tetrazolium salt MTT to blue formazan in quantities proportional to the number of living cells. The cells were incubated with the medium alone or with the tested compounds at concentrations of 100 µM, 25 µM, 6.25 µM, 1.56 µM and 0.39 µM for 48 h. […] Then, 20 μL MTT solution was added to each well and mixed. After 4 h, the supernatants were removed and 100 μL DMSO was added to each well to dissolve the precipitate. The viability of cells was estimated by measuring the absorbance at 570 nm using a Bioline ELIZA plate reader. The cell viability percentage was calculated based on the absorbance ratio between cell culture treated with the compounds and the untreated control multiplied by 100. Selectivity index (SI) was calculated as the ratio of cytotoxicity (IC50) on normal cells (MCF-10a) to cancer cells (MCF-7).

[2] = MTT assay, cytotoxicity against normal breast cell line MCF-10a; settings: human; for IC50 at 48 h: MCF-10a normal breast cells
Method: as §1, §2

MCF-7 cells [3] = experiment: Annexin V-FITC/PI apoptosis assay by flow cytometry; assay type: cell-based, human; settings: 24 h
Method: Apoptosis assessment was carried out by flow cytometry using Annexin V-FITC and propidium iodide double-staining apoptosis detection kit (Biovision, USA) according to the manufacturer instructions. Annexin V is a protein with high affinity for phosphatidylserine (PS). The latter is a cell membrane component that translocate from the inner face of the plasma membrane to the cell surface soon after initiating apoptosis. […] The cells were then collected by centrifugation and re-suspended in 500 μL of binding buffer. Annexin V-FITC and PI double staining was performed by adding 5 μL of Annexin V-FITC and 5 μL of PI. The cells were then incubated in dark, at room temperature for 5 min. After incubation, cell fluorescence was evaluated using FacsCalibur (BD Biosciences, USA). Dot-plot graphs were used to illustrate the results.

MCF-7 cells [4] = experiment: Cell cycle analysis by propidium iodide flow cytometry; assay type: cell-based, human
Method: The cell cycle analysis was carried out by flow cytometry using ab139418_propidium iodide flow cytometry kit/BD (Abcam, Cambridge, UK) according to the manufacturer instructions. […] After treatment, the cells were washed twice with ice-cold phosphate buffer saline (PBS) and collected by centrifugation. The cells were then fixed using ice-cold 66% (v/v) ethanol, washed with PBS, and re-suspended with 0.1 mg/mL RNase to digest cellular RNA and thus minimise stained RNA in the background. The cells were then stained with […] propidium iodide (PI), a fluorescent molecule with the ability to bind to nucleic acid. PI binds to the DNA in cells in proportion to its amount. As the DNA content is different among cells in different phases of cell cycle, the stage of cell growth can be determined based on fluorescence intensity. Cell fluorescence was evaluated using FacsCalibur (BD Biosciences, USA) and analysed using Cell- Quest software (Becton Dickinson)[41]. Cell cycle analysis of MCF-7 cells without any treatment was used as control.

MCF-7 cells [5] = experiment: Intracellular reactive oxygen species (ROS) analysis with H2DCFDA; assay type: cell-based, human; settings: MCF-7, 1.52 µM
Method: Intracellular ROS was detected by cell-permeable fluorogenic probe H2DCFDA. Cell culture subdivided into three groups. The groups are the negative control (untreated MCF-7 cells), the positive control group (MCF-7 cells treated with H2O2), and test group (MCF-7 cells treated with compound 2c). After removing the culture supernatants, the cells were then incubated in fresh medium with 10 µM H2DCFDA at the dark at 37 °C for 1 h. The cells were washed with PBS buffer, then, harvested and the pellets were suspended in PBS. Samples were analysed ROBONIK P2000 ELISA reader wavelength 450 nm.

[6] = test system: p38 MAPK (phosphorylated and total) in MCF-7 cells; experiment: p38 MAPK (phosphorylated and total) ELISA in treated cells; assay type: cell-based, human; settings: MCF-7, 1.52 µM, vs untreated cells
Method: Measurements were performed using ELISA kits (R&D systems, Minneapolis, MN, USA ELISA (Cat. # KHO0071) and p38 MAPK (Total) ELISA, according to the manufacturer’s instructions.

MCF-7 = settings: reported chalcones of Figure 1; cited from earlier work
leukemia = test system: leukemia; parameters: method as in PMID 31927336, PMID 22503741; settings: reported chalcone of Figure 1; cited from earlier work
C6 and Hela cell lines = test system: C6 and Hela cell lines; parameters: method as in PMID 31927336, PMID 22503741; settings: reported chalcone of Figure 1; cited from earlier work
[7] = MCF-7, 1.52 µM, in comparison to the control (DMSO)
[8] = MCF-7, 1.52 µM, relative to control (DMSO)

## O=C(C=Cc1ccc(Oc2ccc(Br)cc2)cc1)c1ccc(Cl)cc1 [Compound 2a, 3–(4-(4-Bromophenoxy)phenyl)-1–(4-chlorophenyl)prop-2-en-1-one]
[1]
  IC50: 8.51 ± 0.16 µM
  Selectivity index: 3.92
other
  melting point: 150 to 152 °C
[2]
  IC50 at 48 h: 33.4 ± 1.34 µM

## O=C(C=Cc1ccc(Oc2ccc(Br)cc2)cc1)c1ccc(Br)cc1 [Compound 2b, 3–(4-(4-Bromophenoxy)phenyl)-1–(4-bromophenyl)prop-2-en-1-one]
[1]
  IC50: 13.3 ± 0.53 µM
  Selectivity index: 1.91
other
  melting point: 164 to 166 °C
[2]
  IC50 at 48 h: 25.3 ± 1.17 µM

## Cc1ccc(C(=O)C=Cc2ccc(Oc3ccc(Br)cc3)cc2)cc1 [Compound 2c, 3–(4-(4-Bromophenoxy)phenyl)-1-(p-tolyl)prop-2-en-1-one]
MCF-7 cells [3]; MCF-7, 1.52 µM (IC50)
  apoptotic cells percentage, early apoptosis: 5.17%
  apoptotic cells percentage, late apoptosis: 21.96%
  percentage necrosis: 2.28%
  percentage of total apoptosis: 29.41%
MCF-7 cells [3]; MCF-7, 1.52 µM
  elevation in late apoptosis, fold more than control: 57.78 fold
  increase in early apoptosis, fold more than control: 9.0 fold
  increase in total apoptosis, fold compared to the control: 16.24 fold
MCF-7 cells [4]; MCF-7, 1.52 µM
  phase of cell cycle arrest: G2/M phase
MCF-7 cells [4]; MCF-7, 1.52 µM (IC50), 24 h
  cell population %G0/G1: 24.92%
  cell population %G2/M: 45.86%
  cell population %Pre G1: 29.41%
  cell population %S: 29.22%
MCF-7 cells [4]; [7]
  augmentation of proportion of cells in the G2/M phase: 4.25 fold
  augmentation of proportion of cells in the pre-G1 phase: 16.24 fold
MCF-7 cells [4]; [8]
  decline in the cell population at the G0/G1 phase: 54.73%
  decline in the cell population at the S phase: 14.5%
MCF-7 cells [5]
  ROS induction higher than control: 10%
[1]
  fold more active than 2a: 5.6 fold
  fold more active than 2b: 8.7 fold
  IC50: 1.52 ± 0.03 µM
  Selectivity index: 15 and 15.24
[2]
  IC50: 23.2 ± 0.88 µM
[6]
  down-regulation of total p38 MAPK: ~40%
  interference with p38 MAPK phosphorylation (decrease of phosphorylated p38 MAPK): ~60%

## O=C(C=Cc1ccc(Oc2ccc(Cl)cc2)cc1)c1ccc(Cl)cc1 [Compound 2d, 3–(4-(4-Chlorophenoxy)phenyl)-1–(4-chlorophenyl)prop-2-en-1-one]
[1]
  IC50: 19.9 ± 0.66 µM
  Selectivity index: 1.67
other
  melting point: 120 to 122 °C
[2]
  IC50 at 48 h: 33.1 ± 1.42 µM

## O=C(C=Cc1ccc(Oc2ccc(Cl)cc2)cc1)c1ccc(Br)cc1 [Compound 2e, 1–(4-Bromophenyl)-3–(4-(4-chlorophenoxy)phenyl)prop-2-en-1-one]
[1]
  IC50: 44.2 ± 2.16 µM
  Selectivity index: 0.50
other
  melting point: 143 to 145 °C
[2]
  IC50 at 48 h: 22.1 ± 1.08 µM

## Cc1ccc(C(=O)C=Cc2ccc(Oc3ccc(Cl)cc3)cc2)cc1 [Compound 2f, 3–(4-(4-Chlorophenoxy)phenyl)-1-(p-tolyl)prop-2-en-1-one]
[1]
  IC50: 1.87 ± 0.02 µM
  Selectivity index: 11.03
[1]; MCF-7 IC50 compared with chalcone 2e
  fold more active than 2e: 23.6 fold
[1]; MCF-7 IC50 compared with chalcone 2d
  fold more active than 2d: 10.6 fold
other
  melting point: 136 to 138 °C
[2]
  IC50 at 48 h: 20.6 ± 0.37 µM

## CC(=O)N1N=C(c2ccc(Cl)cc2)CC1c1ccc(Oc2ccc(Br)cc2)cc1 (stereo not drawn) [Compound 3a, 1–(5-(4–(4-Bromophenoxy)phenyl)-3–(4-chlorophenyl)-4,5-dihydro-1H-pyrazol-1-yl) ethanone]
[1]
  IC50: 10.6 ± 0.39 µM
  Selectivity index: 5.29
other
  melting point: 142 to 144 °C
[2]
  IC50 at 48 h: 55.8 ± 1.92 µM

## CC(=O)N1N=C(c2ccc(Br)cc2)CC1c1ccc(Oc2ccc(Br)cc2)cc1 (stereo not drawn) [Compound 3b, 1–(5-(4–(4-Bromophenoxy)phenyl)-3–(4-bromophenyl)-4,5-dihydro-1H-pyrazol-1-yl) ethanone]
[1]
  IC50: 17.2 ± 0.62 µM
  Selectivity index: 0.67
other
  melting point: 138 to 140 °C
[2]
  IC50 at 48 h: 11.5 ± 0.47 µM

## CC(=O)N1N=C(c2ccc(C)cc2)CC1c1ccc(Oc2ccc(Br)cc2)cc1 (stereo not drawn) [Compound 3c, 1–(5-(4–(4-Bromophenoxy)phenyl)-3-(p-tolyl)-4,5-dihydro-1H-pyrazol-1-yl)ethanone]
[1]
  IC50: 7.42 ± 0.28 µM
  Selectivity index: 2.63
other
  melting point: 141 to 143 °C
[2]
  IC50 at 48 h: 19.5 ± 0.69 µM

## CC(=O)N1N=C(c2ccc(Cl)cc2)CC1c1ccc(Oc2ccc(Cl)cc2)cc1 (stereo not drawn) [Compound 3d, 1–(5-(4–(4-Chlorophenoxy)phenyl)-3–(4-chlorophenyl)-4,5-dihydro-1H-pyrazol-1-yl) ethanone]
[1]
  IC50: 8.51 ± 0.27 µM
  Selectivity index: 5.37
other
  melting point: 116 to 118 °C
[2]
  IC50 at 48 h: 45.7 ± 1.36 µM

## CC(=O)N1N=C(c2ccc(Br)cc2)CC1c1ccc(Oc2ccc(Cl)cc2)cc1 (stereo not drawn) [Compound 3e, 1–(3-(4-Bromophenyl)-5–(4-(4-chlorophenoxy)phenyl)-4,5-dihydro-1H-pyrazol-1-yl) ethanone]
[1]
  IC50: 5.02 ± 0.22 µM
  Selectivity index: 2.02
other
  melting point: 117 to 119 °C
[2]
  IC50 at 48 h: 10.1 ± 0.62 µM

## CC(=O)N1N=C(c2ccc(C)cc2)CC1c1ccc(Oc2ccc(Cl)cc2)cc1 (stereo not drawn) [Compound 3f, 1–(5-(4–(4-Chlorophenoxy)phenyl)-3-(p-tolyl)-4,5-dihydro-1H-pyrazol-1-yl) ethanone]
[1]
  IC50: 4.77 ± 0.13 µM
  Selectivity index: 2.55
other
  melting point: 118 to 120 °C
[2]
  IC50 at 48 h: 12.2 ± 0.79 µM

## COc1ccc(C(=O)/C=C/c2ccc(Cl)cc2)c(Oc2cc(OC)c(OC)c(OC)c2)c1 [III]
MCF-7
  IC50: 4.39 ± 0.26 µM

## Cc1ccc(C(=O)/C=C/c2cccc(Cl)c2Oc2c([N+](=O)[O-])cc(C(F)(F)F)cc2[N+](=O)[O-])cc1 [II]
MCF-7
  IC50: 0.03 ± 0.002 µM

## O=C(/C=C/c1ccc(Br)cc1)c1c(O)cccc1OCc1ccccc1 [IV]
leukemia
  activity against leukemia: Effective against leukemia

## CCn1cc(/C=C/C(=O)c2ccc(Br)cc2)c(-c2ccc(OC)cc2)n1 [IX]
MCF-7
  IC50: 18.7 µM

## COc1ccc(/C=C/C(=O)c2ccc(OC)cc2Oc2cc(OC)c(OC)c(OC)c2)cc1 [I]
MCF-7
  IC50: 3.44 ± 0.19 µM

## O=C(/C=C/c1cc(Br)ccc1O)c1ccc(Br)cc1 [VIII]
MCF-7
  IC50: 3.82 ± 0.022 µM

## Nc1ccc(C(=O)/C=C/c2cccc(Cl)c2)cc1 [VII]
MCF-7
  IC50: 34.2 ± 6.4 µM

## O=C(/C=C/c1ccc(Oc2ccc(Cl)cc2)cc1)c1ccc(N2CCOCC2)cc1 [V]
C6 and Hela cell lines
  activity against C6 and Hela cell lines: Effective against C6 and Hela cell lines
